Measured values published in PubChem BioAssay AID248 (DTP/NCI, 2004).
“And” between values parts separate entries of the source, which are not always exact repeats. Identical values can stand only once. Toxic doses and inconclusive results are not listed. Rule as the data show it: active = T/C of 150% or more; inactive = T/C below 125%.

Test system: L1210 leukemia ip in BDF1 mice, survival T/C
Experiment: NCI In Vivo Anticancer Drug Screen. Data for tumor model L1210 Leukemia (intraperitoneal) in B6D2F1 (BDF1) mice
Conditions: endpoint: mean survival time, higher = longer survival
Procedure, shortened: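 Survival endpoint. Drug-treated group vs vehicle group, expressed as T divided by C. Tumor passaged by transplantation.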

[1] = dose: 100.0 mg/kg/injection, schedule: Q01DX001 (ip), vehicle: saline
[2] = dose: 200.0 mg/kg/injection, schedule: Q01DX001 (ip), vehicle: saline
[3] = dose: 400.0 mg/kg/injection, schedule: Q01DX001 (ip), vehicle: saline
[4] = dose: 50.0 mg/kg/injection, schedule: Q01DX009 (ip), vehicle: Klucel (hydroxypropylcellulose) (HPC)
[5] = dose: 100.0 mg/kg/injection, schedule: Q01DX009 (ip), vehicle: Klucel (hydroxypropylcellulose) (HPC)
[6] = dose: 200.0 mg/kg/injection, schedule: Q01DX009 (ip), vehicle: Klucel (hydroxypropylcellulose) (HPC)
[7] = dose: 75.0 mg/kg/injection, schedule: Q01DX001 (ip), vehicle: carboxymethylcellulose (CMC)
[8] = dose: 75.0 mg/kg/injection, schedule: Q04DX003 (ip), vehicle: saline
[9] = dose: 150.0 mg/kg/injection, schedule: Q04DX003 (ip), vehicle: saline
[10] = dose: 300.0 mg/kg/injection, schedule: Q04DX003 (ip), vehicle: saline
[11] = dose: 100.0 mg/kg/injection, schedule: Q04DX003 (ip), vehicle: Klucel (hydroxypropylcellulose) (HPC)
[12] = dose: 200.0 mg/kg/injection, schedule: Q04DX003 (ip), vehicle: Klucel (hydroxypropylcellulose) (HPC)
[13] = dose: 400.0 mg/kg/injection, schedule: Q01DX009 (ip), vehicle: Klucel (hydroxypropylcellulose) (HPC)
[14] = dose: 400.0 mg/kg/injection, schedule: Q04DX003 (ip), vehicle: Klucel (hydroxypropylcellulose) (HPC)
[15] = dose: 100.0 mg/kg/injection, schedule: Q01DX009 (ip), vehicle: saline with Tween-80
[16] = dose: 100.0 mg/kg/injection, schedule: Q01DX001 (ip), vehicle: Klucel (hydroxypropylcellulose) (HPC)
[17] = dose: 100.0 mg/kg/injection, schedule: Q04DX002 (ip), vehicle: saline with Tween-80
[18] = dose: 200.0 mg/kg/injection, schedule: Q04DX002 (ip), vehicle: saline with Tween-80
[19] = dose: 400.0 mg/kg/injection, schedule: Q04DX002 (ip), vehicle: saline with Tween-80

Measured: T/C

C=C/C=C/CC=C
inactive: [1] 107 % of control | [2] 107 % of control | [3] 109 % of control

CC1(C)OC2C(C(=O)NO)OC(n3cnc4c(N)ncnc43)C2O1 (centres undefined)
inactive: dose: 100.0 mg/kg/injection, schedule: Q01DX005 (ip), vehicle: saline 101 % of control | dose: 200.0 mg/kg/injection, schedule: Q01DX005 (ip), vehicle: saline 101 % of control

C#CCCCOC(=O)Nc1ccccc1
inactive: [4] 97 % of control | [5] 103 % of control | [6] 89 % of control

COC(=O)/C=C/C(=O)O
inactive: [7] 86 % of control

CC(=O)Nc1cccc(/C=C/C=C/c2ccc([N+](=O)[O-])cc2)c1
inactive: dose: 100.0 mg/kg/injection, schedule: Q04DX003 (ip), vehicle: saline with Tween-80 93 % of control | dose: 200.0 mg/kg/injection, schedule: Q04DX003 (ip), vehicle: saline with Tween-80 90 % of control | dose: 400.0 mg/kg/injection, schedule: Q04DX003 (ip), vehicle: saline with Tween-80 90 % of control

Nc1ncnc2c1ncn2C1OC(CO)C(N)C1O (centres undefined)
inactive: dose: 1.3 mg/kg/injection, schedule: Q01DX Z (ip), vehicle: carboxymethylcellulose (CMC) 105 % of control | dose: 2.0 mg/kg/injection, schedule: Q01DX Z (ip), vehicle: carboxymethylcellulose (CMC) 108 % of control | dose: 3.0 mg/kg/injection, schedule: Q01DX Z (ip), vehicle: carboxymethylcellulose (CMC) 113 % of control

O=C(O)C1CCCC1C(=O)O (centres undefined)
inactive: [8] 94 % of control | [9] 102 % of control | [10] 95 % of control

C/C(=N/NC(N)=S)c1ccco1
inactive: [2] 119 % of control | [3] 102 % of control

Cc1ccc(C)c(NC(=O)N(CC(O)c2ccccc2)C2CCCCC2)c1 (centres undefined)
inactive: [5] 103 % of control | [11] 96 % of control | [6] 97 % of control | [12] 100 % of control | [13] 95 % of control | [14] 104 % of control

CC(CN1c2ccccc2Sc2ccc(Cl)cc21)N(C)CCCl (centres undefined)
inactive: [7] 106 % of control and 114 % of control

CC1=CSCC(=O)N1
inactive: [15] 97 % of control | dose: 200.0 mg/kg/injection, schedule: Q01DX009 (ip), vehicle: saline with Tween-80 101 % of control | dose: 400.0 mg/kg/injection, schedule: Q01DX009 (ip), vehicle: saline with Tween-80 105 % of control

CN(C)c1ccc(/C=N/N=C(N)N)cc1
inactive: dose: 15.0 mg/kg/injection, schedule: Q01DX Z (ip), vehicle: saline 89 % of control | dose: 30.0 mg/kg/injection, schedule: Q01DX Z (ip), vehicle: saline 92 % of control | dose: 30.0 mg/kg/injection, schedule: Q01DX Z (oral), vehicle: other 100 % of control | dose: 60.0 mg/kg/injection, schedule: Q01DX Z (ip), vehicle: saline 100 % of control | dose: 60.0 mg/kg/injection, schedule: Q01DX Z (oral), vehicle: other 97 % of control | dose: 120.0 mg/kg/injection, schedule: Q01DX Z (oral), vehicle: other 109 % of control

S=c1ssc2ccccc12
inactive: dose: 50.0 mg/kg/injection, schedule: Q04DX003 (ip), vehicle: saline 100 % of control | [1] 94 % of control and 96 % of control | dose: 100.0 mg/kg/injection, schedule: Q04DX003 (ip), vehicle: saline 97 % of control | [2] 94 % of control and 101 % of control | dose: 200.0 mg/kg/injection, schedule: Q04DX003 (ip), vehicle: saline 97 % of control | [3] 98 % of control

CCSc1c(Cl)c(Cl)c(Cl)c(Cl)c1Cl
inactive: [5] 97 % of control | [6] 100 % of control | [13] 87 % of control

ONC12CC3CC(CC(C3)C1)C2
inactive: dose: 12.5 mg/kg/injection, schedule: Q01DX009 (ip), vehicle: Klucel (hydroxypropylcellulose) (HPC) 98 % of control | dose: 25.0 mg/kg/injection, schedule: Q01DX009 (ip), vehicle: Klucel (hydroxypropylcellulose) (HPC) 95 % of control | [4] 95 % of control | [16] 97 % of control

N=C(N)SCc1ccc(Cl)cc1Cl
inactive: dose: 25.0 mg/kg/injection, schedule: Q01DX009 (ip), vehicle: saline with Tween-80 100 % of control | dose: 50.0 mg/kg/injection, schedule: Q01DX009 (ip), vehicle: saline with Tween-80 96 % of control | [15] 98 % of control | dose: 100.0 mg/kg/injection, schedule: Q04DX002 (ip), vehicle: Klucel (hydroxypropylcellulose) (HPC) 96 % of control | dose: 200.0 mg/kg/injection, schedule: Q04DX002 (ip), vehicle: Klucel (hydroxypropylcellulose) (HPC) 89 % of control | dose: 400.0 mg/kg/injection, schedule: Q04DX002 (ip), vehicle: Klucel (hydroxypropylcellulose) (HPC) 96 % of control

CC(=O)c1c(C)cc(C)c(CC(=O)O)c1C
inactive: dose: 75.0 mg/kg/injection, schedule: Q01DX009 (ip), vehicle: Klucel (hydroxypropylcellulose) (HPC) 104 % of control | dose: 150.0 mg/kg/injection, schedule: Q01DX009 (ip), vehicle: Klucel (hydroxypropylcellulose) (HPC) 97 % of control | dose: 300.0 mg/kg/injection, schedule: Q01DX009 (ip), vehicle: Klucel (hydroxypropylcellulose) (HPC) 93 % of control

c1ccc2c3csccc-3nc2c1
inactive: dose: 12.5 mg/kg/injection, schedule: Q01DX009 (ip), vehicle: saline 92 % of control | dose: 25.0 mg/kg/injection, schedule: Q01DX009 (ip), vehicle: saline 98 % of control | [4] 94 % of control | dose: 50.0 mg/kg/injection, schedule: Q01DX009 (ip), vehicle: saline 97 % of control | [5] 92 % of control | dose: 100.0 mg/kg/injection, schedule: Q04DX003 (ip), vehicle: acetone 94 % of control and 98 % of control | [6] 92 % of control | dose: 200.0 mg/kg/injection, schedule: Q04DX003 (ip), vehicle: acetone 97 % of control

Nc1cc(Sc2ccc(Cl)cc2)nc(N)n1
inactive: dose: 100.0 mg/kg/injection, schedule: Q01DX001 (ip), vehicle: saline with Tween-80 100 % of control | dose: 200.0 mg/kg/injection, schedule: Q01DX001 (ip), vehicle: saline with Tween-80 100 % of control | dose: 400.0 mg/kg/injection, schedule: Q01DX001 (ip), vehicle: saline with Tween-80 100 % of control

COC(=O)C1C2CC3C(OC(=O)C31)C2Br (centres undefined)
inactive: [16] 98 % of control | [5] 102 % of control | [11] 104 % of control | dose: 200.0 mg/kg/injection, schedule: Q01DX001 (ip), vehicle: Klucel (hydroxypropylcellulose) (HPC) 103 % of control | [6] 93 % of control | [12] 105 % of control | dose: 400.0 mg/kg/injection, schedule: Q01DX001 (ip), vehicle: Klucel (hydroxypropylcellulose) (HPC) 109 % of control | [13] 94 % of control | [14] 107 % of control

Cn1c(NN)cc(=O)n(C)c1=O
inactive: [8] 107 % of control | [9] 94 % of control | [10] 104 % of control

c1ccc2c(CCNC3=NCCO3)c[nH]c2c1
inactive: dose: 50.0 mg/kg/injection, schedule: Q04DX002 (ip), vehicle: saline with Tween-80 91 % of control | [17] 91 % of control | [11] 94 % of control | [12] 108 % of control | [14] 94 % of control

CS(=O)(=O)c1nc2ccc([N+](=O)[O-])cc2s1
inactive: dose: 25.0 mg/kg/injection, schedule: Q04DX002 (ip), vehicle: saline 107 % of control | dose: 50.0 mg/kg/injection, schedule: Q04DX002 (ip), vehicle: saline 104 % of control | dose: 100.0 mg/kg/injection, schedule: Q04DX002 (ip), vehicle: saline 100 % of control

CN1CCN(C2CCCc3ccccc3C2O)CC1 (centres undefined)
inactive: dose: 5.0 mg/kg/injection, schedule: Q01DX001 (ip), vehicle: saline 109 % of control | dose: 10.0 mg/kg/injection, schedule: Q01DX001 (ip), vehicle: saline 105 % of control | dose: 20.0 mg/kg/injection, schedule: Q01DX001 (ip), vehicle: saline 103 % of control | dose: 40.0 mg/kg/injection, schedule: Q01DX001 (ip), vehicle: saline 103 % of control

CN(C)N=Nc1ccc(-c2nnco2)cc1
inactive: [17] 110 % of control | [18] 106 % of control | [19] 119 % of control

O=C(Cl)COc1c(Cl)cc(Cl)cc1Cl
inactive: [17] 107 % of control | [18] 107 % of control | [19] 103 % of control
